Legend:
[1] = biological target: T1, free soybean lipoxygenase (LOX, type I-B) (Glycine max, UniProt P08170); test: LOX oxidation of linoleic acid, hydroperoxide (HPOD) formation, free enzyme; assay type: biochemical; conditions: substrate linoleic acid; free LOX under similar conditions
T1 sequence (P08170 1-839): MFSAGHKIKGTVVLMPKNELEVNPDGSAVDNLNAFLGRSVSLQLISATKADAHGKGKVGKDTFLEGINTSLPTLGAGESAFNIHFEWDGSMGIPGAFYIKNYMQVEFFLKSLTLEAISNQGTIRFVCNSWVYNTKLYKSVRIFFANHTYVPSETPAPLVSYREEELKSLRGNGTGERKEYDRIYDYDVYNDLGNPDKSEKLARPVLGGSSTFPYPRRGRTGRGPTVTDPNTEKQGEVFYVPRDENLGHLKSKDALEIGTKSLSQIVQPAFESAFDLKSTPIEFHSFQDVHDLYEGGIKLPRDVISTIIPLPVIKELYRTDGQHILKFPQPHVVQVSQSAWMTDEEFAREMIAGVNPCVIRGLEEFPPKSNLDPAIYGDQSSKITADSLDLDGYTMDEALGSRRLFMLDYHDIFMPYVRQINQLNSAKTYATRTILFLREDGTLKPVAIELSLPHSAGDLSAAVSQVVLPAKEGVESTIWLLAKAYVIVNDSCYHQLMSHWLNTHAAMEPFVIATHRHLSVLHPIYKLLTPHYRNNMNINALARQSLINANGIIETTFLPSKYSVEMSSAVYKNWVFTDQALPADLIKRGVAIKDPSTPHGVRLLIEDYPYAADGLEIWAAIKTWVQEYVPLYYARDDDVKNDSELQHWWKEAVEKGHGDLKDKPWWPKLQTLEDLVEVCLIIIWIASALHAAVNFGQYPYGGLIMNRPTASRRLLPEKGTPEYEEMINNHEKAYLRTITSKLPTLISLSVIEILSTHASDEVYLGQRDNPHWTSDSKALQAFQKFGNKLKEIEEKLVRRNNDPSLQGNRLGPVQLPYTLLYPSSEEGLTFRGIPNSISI
Method: Measurement of Enzymatic Activity. The activity of the immobilized lipoxygenase was assayed by measurement of hydroperoxide formation (Parra-Diaz, D. et al. [1993] supra). An aliquot of the substrate (5 μmoles of linoleic acid) dissolved in methylene chloride was placed in a 10 mL flask and evaporated to dryness under a stream of nitrogen. The reaction medium containing 0.2 mL of 100 mM deoxychlorate (DOC) and 1.8 mL of sodium borate buffer (0.2 M, pH 9.0) was added to the substrate, and the mixture was then shaken at 250 rpm for 0.5 h at 15° C. The reaction was initiated by adding a suitable amount (approximately 0.15 mg) free or immobilized LOX. Oxidation was conducted at 15° C. with agitation at 250 rpm for two hours. The reaction was quenched by adding 400 μL of 1 M citric add. Linoleic acid hydroperoxide was isolated by extracting the reaction mixture twice with 2 mL chloroform:methanol (2/1, v/v). After removing the solvent under a stream of nitrogen, the hydroperoxide was redissolved in 3 mL ethanol. The amount of hydroperoxide was determined spectrophotometrically by the xylenol orange method (Jiang, T.-Y. et al. [1991] Lipids 26:853-856). Standards were prepared by diluting a commercial cumene peroxide. […]

[2] = biological target: T2, soybean lipoxygenase (LOX, type I-B) immobilized in crosslinked phyllosilicate (TMOS-crosslinked montmorillonite) (Glycine max, UniProt P08170); test: LOX oxidation of linoleic acid, hydroperoxide (HPOD) formation, immobilized enzyme; assay type: biochemical; conditions: substrate linoleic acid 0-20 μmoles; Lineweaver-Burk plot; LOX immobilized in crosslinked phyllosilicates
T2 construct: purchased Sigma, St. Louis, Mo
T2 sequence (P08170 1-839): T1 sequence (P08170 1-839)
Method: Measurement of Enzymatic Activity. The activity of the immobilized lipoxygenase was assayed by measurement of hydroperoxide formation (Parra-Diaz, D. et al. [1993] supra). An aliquot of the substrate (5 μmoles of linoleic acid) dissolved in methylene chloride was placed in a 10 mL flask and evaporated to dryness under a stream of nitrogen. The reaction medium containing 0.2 mL of 100 mM deoxychlorate (DOC) and 1.8 mL of sodium borate buffer (0.2 M, pH 9.0) was added to the substrate, and the mixture was then shaken at 250 rpm for 0.5 h at 15° C. The reaction was initiated by adding a suitable amount (approximately 0.15 mg) free or immobilized LOX. Oxidation was conducted at 15° C. with agitation at 250 rpm for two hours. The reaction was quenched by adding 400 μL of 1 M citric add. Linoleic acid hydroperoxide was isolated by extracting the reaction mixture twice with 2 mL chloroform:methanol (2/1, v/v). After removing the solvent under a stream of nitrogen, the hydroperoxide was redissolved in 3 mL ethanol. The amount of hydroperoxide was determined spectrophotometrically by the xylenol orange method (Jiang, T.-Y. et al. [1991] Lipids 26:853-856). […] All results were corrected by subtracting the reading from controls without enzymes. […]
Effect of substrate concentration. The rate of hydroperoxide (HPOD) formation was measured at linoleic acid concentrations ranging from 0-20 μmoles. […]

SMILES: CCCCC/C=C\C/C=C\CCCCCCCC(=O)O [linoleic acid]
- Km [1]: 2500 µM
- Vmax [1]: 0.056 mol/min
- Km [2]: 1700 µM
- Vmax [2]: 0.023 µmol/min

Source: patent US6180378A, “Immobilization of bioactive protein in phyllosilicates” (The United States of America as represented by the …, priority 1999, dated 2001)
